Assay results reported in article PMC4040332 (ChemMedChem, 2013).
Converted amounts (≈) assume the structure as drawn.

Assays:
[1] = system: GR from B. anthracis (RacE1); assay type: biochemical; conditions: RacE1, Figure 1
B. subtilis DB104 = test: Inhibition of bacterial growth; conditions: Bacillus subtilis, DB104, 24 h, read-out: MIC50 B. subtilis
GR from B. subtilis = GR from B. subtilis (Bacillus subtilis, UniProt P94556)
[2] = system: GR from F. tularensis (MurI); assay type: biochemical; conditions: Figure 1
[3] = system: GR from B. anthracis (RacE2); assay type: biochemical; conditions: RacE2, Figure 1

GR from B. subtilis, sequence (P94556 whole entry): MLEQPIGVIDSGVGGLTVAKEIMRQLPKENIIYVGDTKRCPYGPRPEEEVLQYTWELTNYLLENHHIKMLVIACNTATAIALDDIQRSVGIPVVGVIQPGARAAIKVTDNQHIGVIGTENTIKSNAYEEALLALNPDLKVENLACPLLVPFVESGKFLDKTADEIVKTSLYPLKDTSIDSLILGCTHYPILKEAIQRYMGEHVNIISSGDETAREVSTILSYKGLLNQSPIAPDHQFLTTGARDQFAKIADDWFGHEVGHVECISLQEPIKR

O=S(=O)(O)c1nc2ccccc2[nH]1 [Compound 2, 1H-benzimidazole-2-sulfonic acid]
potency compared with GR from B. subtilis [1]: equal potency
MIC50 (B. subtilis DB104): 720 ± 60 mg/L (≈ 3.63 mM)
LE (ligand efficiency) (GR from B. subtilis; Ki converted to binding energy, divided by number of non-hydrogen atoms): 0.53 kcal/mol/atom
LiPE (lipophilic efficiency) (GR from B. subtilis; from log(Ki) and logP calculated with MarvinSketch): 5.3
potency compared with GR from B. subtilis [2]: equal potency
potency compared with GR from B. subtilis [3]: equal potency
